Reference: patent US7122528B2, “Use of 5-substituted nucleosides and/or prodrugs thereof in the resistance-free treatment of infectious diseases” (RESPROTECT GmbH, priority 2001, dated 2006)
Like-named read-outs stand apart in the source and are kept apart here.

Key:
[1] = system: E. coli J53 (RP4) strains; experiment: Determination of minimal inhibitory concentrations (MIC) of Kanamycin or Amikacin on starter, adapted and BVDU-pretreated strains; type: cell-based, Escherichia coli; conditions: for MIC: Escherichia coli
Excerpt: In order to determine the minimal inhibitory concentrations (MIC), precultures were used initially for which antibiotic-free culture medium had been inoculated directly from frozen glycerine cultures. […] However even higher antibiotic concentrations still led to the growth of the inoculum. However, the growth inhibition prevented a larger cell density in the bacteria culture being reached.
In order to test the stability of the specific resistance features of the E. coli strains, the MIC determination was repeated. The already tested precultures were again absorbed for this purpose in antibiotic-free culture medium and tested for their Kanamycin resistance. The resistance spectra of the starter strain and of the strain adapted to 64 μg/ml remained unchanged. […] The results are illustrated in FIG. 4.
The results can be deduced from FIG. 6.
(§1) In order to determine the minimal inhibitory concentrations (MIC) of Kanamycin or Amikacin relative to aminoglycoside/BVDU-pretreated E coli J53 (RP4) strains, standard precultures were used which contained no additives in the culture medium (recovery phase). In addition, it was tested in comparative experiments to what extent the addition of BVDU to the antibiotic-free precultures changes the resistant spectrum of the strains.

[2] = system: Escherichia coli J53 (RP4); experiment: Growth tests: adaptation (resistance development) to aminoglycoside antibiotic with or without BVDU; type: cell-based
Excerpt: Escherichia coli J53 was used as Gram-negative model organism in order to test the effectiveness of BVDU. This organism carries the naturally occurring plasmid RP4, on which resistances to Ampicillin, Tetracycline and Kanamycin are encoded.
The results are illustrated in FIGS. 1 and 2.

[3] = system: aminoglycoside/BVDU-pretreated E coli J53 (RP4) strains; experiment: BVDU conditioned growth inhibition after aminoglycoside/BVDU pretreatment; type: cell-based, Escherichia coli
Description: as §1
In comparison therewith, the growth without antibiotic in the additive-free preculture corresponded to that of the untreated E. coli strain. The results are illustrated in FIGS. 7 and 8.

[4] = system: Leidshmania donovanii; experiment: Prevention of methotrexate resistance development in Leishmania by gradual increase in MTX concentration; type: cell-based
Description: Prevention of resistance development in Zooflagellates (Leishmania) by the simultaneous administration of the anti-recombinogenic 5-substituted nucleoside (E)-5-(2-bromovinyl)2′-deoxyuridines (BVDU) with methotrexate.
Methotrexate (MTX) resistant cells of Leidshmania donovanii were produced by gradual increase in the MTX concentrations of 5 to 10, of 10 to 50 and of 50 to 100 μm MTX. 5×10^6 cells/ml respectively were seeded in the growth medium. The cells were diluted again to 5×10^6 cells/ml for each new batch. The cells were then constantly subjected to the next higher MTX concentration when the cell division rate of the MTX-subjected cells had stabilised to the control level. […] The result of this test can be seen in a simplified version in FIGS. 9 and 10.

[5] = 1 μg/ml BVDU added simultaneously with MTX

NCC[C@H](O)C(=O)N[C@@H]1C[C@H](N)[C@@H](O[C@H]2O[C@H](CN)[C@@H](O)[C@H](O)[C@H]2O)[C@H](O)[C@H]1O[C@H]1O[C@H](CO)[C@@H](O)[C@H](N)[C@H]1O [Amikacin]
MIC ([1]; strain which had become resistant to 0.25 μg/ml Amikacin, read-out: MIC of Amikacin): 2 µg/mL | Amikacin concentration from which growth inhibition was shown ([1]; strain grown in the presence of 2 μg/ml BVDU (no resistance to 0.25 μg/ml Amikacin)): 0.125 µg/mL | increase of Amikacin MIC relative to the starter strain ([1]; strain which had become resistant to 0.25 μg/ml Amikacin): eight times increased | adaptation, i.e. resistance development, to the antibiotic ([2]; Amikacin 0.25 μg/ml alone, E coli J53 (RP4)): slow adaptation, i.e. resistance development

O=c1[nH]c(=O)n([C@H]2C[C@H](O)[C@@H](CO)O2)cc1/C=C/Br [BVDU, (E)-5-(2-bromovinyl)-2-deoxyuridines]
growth of aminoglycoside/BVDU-pretreated E. coli strains in the absence of the antibiotic ([3]; BVDU 1 or 2 μg/ml in the preculture or/and 0.04–0.05 μg/ml in the MIC batches): sustained restriction of the growth | effect of BVDU without pretreatment (antibiotic+BVDU) ([3]; no pretreatment): no effect | toxicity of BVDU without pretreatment ([3]; no pretreatment): not toxic | cell division rate relative to control level [4, 5]: never reached the control level | resistance development to MTX treatment [4, 5]: no resistance to the treatment | effect on resistance development/adaptation to Kanamycin ([2]; BVDU 1 μg/ml in presence of Kanamycin 64 μg/ml, E. coli J53 (RP4)): inhibition of this resistance development/adaptation | effect on adaptation to Amikacin ([2]; BVDU 2 μg/ml in presence of Amikacin 0.25 μg/ml, E coli J53 (RP4)): inhibition of this adaptation

NC[C@H]1O[C@H](O[C@H]2[C@H](O)[C@@H](O[C@H]3O[C@H](CO)[C@@H](O)[C@H](N)[C@H]3O)[C@H](N)C[C@@H]2N)[C@H](O)[C@@H](O)[C@@H]1O [Kanamycin]
MIC ([1]; strain pretreated with 64 μg/ml Kanamycin + 1 μg/ml BVDU, repeated MIC determination, read-out: Kanamycin concentration from which growth of the inoculum was completely prevented (MIC)): 32 µg/mL | MIC ([1]; strain which had become resistant to 64 μg/ml Kanamycin, read-out: MIC of Kanamycin): 128 µg/mL | Kanamycin concentration from which growth inhibition was shown ([1]; strain grown in the presence of 1 μg/ml BVDU (no resistance to 64 μg/ml Kanamycin), first MIC determination): 16 µg/mL

CN(Cc1cnc2nc(N)nc(N)c2n1)c1ccc(C(=O)N[C@@H](CCC(=O)O)C(=O)O)cc1 [MTX, Methotrexate]
passages until cell division rate stabilised to the control level ([4]; MTX alone, steps 5 to 10, 10 to 50, 50 to 100 μm MTX): approximately three to four passages
